Measured values: patent US11312723B2, “Pyranopyrazole and pyrazolopyridine immunomodulators for treatment of autoimmune diseases” (The Rockefeller University, priority 2017, dated 2022)

Target: Human FXIIa (Homo sapiens (Human), UniProt P00748)
Experiment: Factor XIIa (FXIIa) inhibitory activity, chromogenic substrate (Pefachrome XIIa) cleavage
Type: biochemical
Conditions: 10 min pre-incubation, Pefachrome XIIa 400 μM
Description: Factor XIIa (FXIIa) Inhibitory Activity:
In a 96-well clear bottom plate, 80 μl of assay buffer was added to each well. Assay buffer consists of 0.5× Hank's Balanced Salt Solution (Invitrogen), buffered with 25 mM HEPES pH 7.4 (Invitrogen) and 0.5× Tris-buffered saline with Tween-20 0.05% (Santa Cruz Biotechnology). Test compounds were first dissolved in DMSO (Sigma) and then 4 μl were added to test wells containing assay buffer. Serial dilutions using an automated multi-channel pipette were used to generate a concentration range of approximately 1-100 μM. Human FXIIa (Enzyme Research Labs) was diluted in assay buffer to a final concentration of 12.5 nM. 80 μl of this enzyme solution was added to the assay wells. The enzyme/compound mixtures were incubated for 10 minutes at room temperature. Chromogenic substrate (Pefachrome XIIa; Enzyme Research Labs) was added to assay wells at a final concentration of 400 μM. The assay plate was spun for 1 minute at 1500 g and then read at 37° C. in a SpectraMax M2 plate reader (λ=405 nm). Activity was quantified as the rate of change in absorbance, which corresponds to the rate of substrate cleavage. IC50 values were determined as the concentration of inhibitor that produced 50% of the rate of change of control wells without any inhibitor. For compounds with activity <1 μM, the assay was repeated with a lower concentration range, typically from 10-1000 nM.

Chain of Human FXIIa (P00748 373-615): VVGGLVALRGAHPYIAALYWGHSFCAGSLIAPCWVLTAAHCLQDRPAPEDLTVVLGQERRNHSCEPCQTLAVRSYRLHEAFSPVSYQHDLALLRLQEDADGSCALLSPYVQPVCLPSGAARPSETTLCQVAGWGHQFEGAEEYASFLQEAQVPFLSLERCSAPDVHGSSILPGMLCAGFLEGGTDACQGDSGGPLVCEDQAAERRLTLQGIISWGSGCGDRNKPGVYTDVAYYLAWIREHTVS
Chain of Human FXIIa (P00748 20-372 partner): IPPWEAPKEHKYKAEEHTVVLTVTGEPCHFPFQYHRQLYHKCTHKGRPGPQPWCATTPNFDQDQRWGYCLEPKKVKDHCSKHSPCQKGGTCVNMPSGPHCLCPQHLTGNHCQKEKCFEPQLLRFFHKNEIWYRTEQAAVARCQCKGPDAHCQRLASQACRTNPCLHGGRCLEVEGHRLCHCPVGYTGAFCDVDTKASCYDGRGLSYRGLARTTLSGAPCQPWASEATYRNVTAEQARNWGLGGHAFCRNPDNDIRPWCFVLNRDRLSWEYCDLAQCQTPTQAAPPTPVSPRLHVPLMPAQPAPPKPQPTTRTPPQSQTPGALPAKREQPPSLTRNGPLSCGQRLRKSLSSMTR

| Structure (SMILES) | IC50 [µM] |
| --- | --- |
| CC(=O)Nc1ccc2c(c1)C(C(=O)n1nc(N)c3c1CN(S(C)(=O)=O)CC3)CCN2 (centres unmarked) [Example 48, N-(4-(3-amino-6-(methylsulfonyl)-4,5,6,7-tetrahydro-1H-pyrazolo[3,4-c]pyridine-1-carbonyl)-1,2,3,4-tetrahydroquinolin-6-yl)acetamide] | > 30 |
| Nc1nn(C(=O)C2CCNc3c(Cl)cccc32)c2c1CCNC2 (centres unmarked) [Example 71, (3-amino-4,5,6,7-tetrahydropyrazolo[3,4-c]pyridin-1-yl)(8-chloro-1,2,3,4-tetrahydroquinolin-4-yl)methanone] | 5 |
| CS(=O)(=O)N1CCc2c(nn(C(=O)C3CCNc4ccc(F)cc43)c2N)C1 (single isomer, unassigned) [Example 19, (R*)-(3-amino-6-(methylsulfonyl)-4,5,6,7-tetrahydropyrazolo[3,4-c]pyridin-2-yl)(6-fluoro-1,2,3,4-tetrahydroquinolin-4-yl)methanone] | 11 |
| CCc1cccc2c1NCCC2C(=O)n1nc2c(c1N)CCN(S(C)(=O)=O)C2 (centres unmarked) [Example 65, (3-amino-6-(methylsulfonyl)-4,5,6,7-tetrahydropyrazolo[3,4-c]pyridin-2-yl)(8-ethyl-1,2,3,4-tetrahydroquinolin-4-yl)methanone] | 0.09 |
| Nc1nn(C(=O)C2CCNc3ccc(F)cc32)c2c1CCN(S(=O)(=O)c1cccnc1)C2 (centres unmarked) [Example 158, (3-amino-6-(pyridin-3-ylsulfonyl)-4,5,6,7-tetrahydro-pyrazolo[3,4-c]pyridin-1-yl)(6-fluoro-1,2,3,4-tetrahydro-quinolin-4-yl)methanone] | 37 |
| Cc1cccc2c1NCC[C@@H]2C(=O)n1nc2c(c1N)COCC2 (single isomer, unassigned) [Example 190, (S*)-(3-amino-6,7-dihydropyrano[4,3-c]pyrazol-2(4H)-yl)(8-methyl-1,2,3,4-tetrahydro-quinolin-4-yl)methanone] | 0.05 |
| CCc1ccc2c(c1)C(C(=O)n1nc3c(c1N)CCN(S(C)(=O)=O)C3)CCN2 (single isomer, unassigned) [Example 32, (S*)-(3-amino-6-(methylsulfonyl)-4,5,6,7-tetrahydropyrazolo[3,4-c]pyridin-2-yl)(6-ethyl-1,2,3,4-tetrahydroquinolin-4-yl)methanone] | 0.02 |
| CS(=O)(=O)N1CCc2c(nn(C(=O)[C@@H]3CCNc4ccccc43)c2N)C1 (single isomer, unassigned) [Example 134, (R*)-(3-amino-6-(methylsulfonyl)-4,5,6,7-tetrahydro-pyrazolo[3,4-c]pyridin-2-yl)(1,2,3,4-tetrahydro-quinolin-4-yl)methanone] | 28 |
| Nc1nn(C(=O)C2CCNc3ccc(F)cc32)c2c1COCC2 (centres unmarked) [Example 75, (3-amino-6,7-dihydropyrano[4,3-c]pyrazol-1(4H)-yl)(6-fluoro-1,2,3,4-tetrahydroquinolin-4-yl)methanone] | 25 |
| Nc1c2c(nn1C(=O)[C@H]1CCNc3c(Cl)cccc31)COCC2 (single isomer, unassigned) [Example 202, (S*)-(3-amino-4,5-dihydropyrano[3,4-c]pyrazol-2(7H)-yl)(8-chloro-1,2,3,4-tetrahydro-quinolin-4-yl)methanone] | 0.09 |
| Cc1cccc2c1NCCC2C(=O)n1nc(N)c2c1CN(S(=O)(=O)C1COC1)CC2 (centres unmarked) [Example 187, (3-amino-6-(oxetan-3-ylsulfonyl)-4,5,6,7-tetrahydro-pyrazolo[3,4-c]pyridin-1-yl)(8-methyl-1,2,3,4-tetrahydro-quinolin-4-yl)methanone] | 35 |
| CN1CCc2nn(C(=O)C3CCNc4ccccc43)c(N)c2C1 (centres unmarked) [Example 86, (3-amino-5-methyl-4,5,6,7-tetrahydro-pyrazolo[4,3-c]pyridin-2-yl)(1,2,3,4-tetrahydro-quinolin-4-yl)methanone] | 1.25 |

Continued, values first:

| IC50 [µM] | Structure (SMILES) |
| --- | --- |
| 4.5 | CCN1CCc2c(N)nn(C(=O)C3CCNc4c(C)cc(F)cc43)c2C1 (centres unmarked) [Example 172, (3-amino-6-ethyl-4,5,6,7-tetrahydro-pyrazolo[3,4-c]pyridin-1-yl)(6-fluoro-8-methyl-1,2,3,4-tetrahydro-quinolin-4-yl)methanone] |
| 75 | Cn1cc2c(c1)C(C(=O)n1nc(N)c3c1CN(S(C)(=O)=O)CC3)CCC2 (centres unmarked) [Example 27, (3-amino-6-(methylsulfonyl)-4,5,6,7-tetrahydropyrazolo[3,4-c]pyridin-1-yl)(2-methyl-4,5,6,7-tetrahydro-2H-isoindol-4-yl)methanone] |
| > 65 | COc1cccc2c1NCCC2C(=O)n1nc(N)c2c1CN(S(C)(=O)=O)CC2 (centres unmarked) [Example 62, (3-amino-6-(methylsulfonyl)-4,5,6,7-tetrahydropyrazolo[3,4-c]pyridin-1-yl)(8-methoxy-1,2,3,4-tetrahydroquinolin-4-yl)methanone] |
| 7 | Nc1c2c(nn1C(=O)C1CCNc3c(Cl)cccc31)CNCC2 (single isomer, unassigned) [Example 73, (R*)-(3-amino-4,5,6,7-tetrahydropyrazolo[3,4-c]pyridin-2-yl)(8-chloro-1,2,3,4-tetrahydroquinolin-4-yl)methanone] |
| > 100 | Cc1cccc2c1NCCC2C(=O)n1nc(N)c2c1COCC2 (centres unmarked) [Example 200, (3-amino-4,5-dihydropyrano[3,4-c]pyrazol-1(7H)-yl)(8-methyl-1,2,3,4-tetrahydro-quinolin-4-yl)methanone] |
| 0.07 | Nc1c2c(nn1C(=O)C1CCNc3c(Cl)cccc31)CNCC2 (single isomer, unassigned) [Example 72, (S*)-(3-amino-4,5,6,7-tetrahydropyrazolo[3,4-c]pyridin-2-yl)(8-chloro-1,2,3,4-tetrahydroquinolin-4-yl)methanone] |
| 21 | CCN1CCc2c(N)nn(C(=O)C3CCNc4ccc(Cl)cc43)c2C1 (centres unmarked) [Example 162, (3-amino-6-ethyl-4,5,6,7-tetrahydro-pyrazolo[3,4-c]pyridin-1-yl)(6-chloro-1,2,3,4-tetrahydro-quinolin-4-yl)methanone] |
| 40 | Nc1c2c(nn1C(=O)[C@@H]1CCNc3ccc(F)cc31)COCC2 (single isomer, unassigned) [Example 197, (R*)-(3-amino-4,5-dihydropyrano[3,4-c]pyrazol-2(7H)-yl)(6-fluoro-1,2,3,4-tetrahydro-quinolin-4-yl)methanone] |
| > 80 | CC(C)c1ccc2c(c1)C(C(=O)n1nc(N)c3c1CN(S(C)(=O)=O)CC3)CCN2 (centres unmarked) [Example 46, (3-amino-6-(methylsulfonyl)-4,5,6,7-tetrahydropyrazolo[3,4-c]pyridin-1-yl)(6-isopropyl-1,2,3,4-tetrahydroquinolin-4-yl)methanone] |
| 32 | Cc1cc(F)cc2c1NCCC2C(=O)n1nc(N)c2c1CN(S(C)(=O)=O)CC2 (centres unmarked) [Example 52, (3-amino-6-(methylsulfonyl)-4,5,6,7-tetrahydropyrazolo[3,4-c]pyridin-1-yl)(6-fluoro-8-methyl-1,2,3,4-tetrahydroquinolin-4-yl)methanone] |
| 0.2 | Cc1cccc2c1NCC[C@@H]2C(=O)n1nc2c(c1N)CCN(S(=O)(=O)C1COC1)C2 (single isomer, unassigned) [Example 185, (S*)-(3-amino-6-(oxetan-3-ylsulfonyl)-4,5,6,7-tetrahydro-pyrazolo[3,4-c]pyridin-2-yl)(8-methyl-1,2,3,4-tetrahydro-quinolin-4-yl)methanone] |
| 0.04 | Cc1cc(F)cc2c1NCC[C@@H]2C(=O)n1nc2c(c1N)COCC2 (single isomer, unassigned) [Example 193, (S*)-(3-amino-6,7-dihydropyrano[4,3-c]pyrazol-2(4H)-yl)(6-fluoro-8-methyl-1,2,3,4-tetrahydro-quinolin-4-yl)methanone] |
| > 80 | Cc1cccc2c1NCCC2C(=O)n1nc2c(c1N)CCN(S(C)(=O)=O)C2C (single isomer, unassigned) [Example 78, (3-amino-7-methyl-6-(methylsulfonyl)-4,5,6,7-tetrahydropyrazolo[3,4-c]pyridin-2-yl)(8-methyl-1,2,3,4-tetrahydroquinolin-4-yl)methanone] |
| 40 | CCc1ccc2c(c1)C(C(=O)n1nc(N)c3c1CN(S(C)(=O)=O)CC3)CCN2 (centres unmarked) [Example 31, (3-amino-6-(methylsulfonyl)-4,5,6,7-tetrahydropyrazolo[3,4-c]pyridin-1-yl)(6-ethyl-1,2,3,4-tetrahydroquinolin-4-yl)methanone] |
| 5 | CCc1cc(C)c2c(c1)C(C(=O)n1nc3c(c1N)CCN(S(C)(=O)=O)C3)CCN2 (single isomer, unassigned) [Example 70, (3-amino-6-(methylsulfonyl)-4,5,6,7-tetrahydropyrazolo[3,4-c]pyridin-2-yl)((R*)-6-ethyl-8-methyl-1,2,3,4-tetrahydroquinolin-4-yl)methanone] |
| 20 | Nc1nn(C(=O)C2CCNc3ccc(F)cc32)c2c1CCNC2 (centres unmarked) [Example 148, (3-amino-4,5,6,7-tetrahydro-pyrazolo[3,4-c]pyridin-1-yl)(6-fluoro-1,2,3,4-tetrahydro-quinolin-4-yl)methanone] |
| 80 | Cc1cccc2c1NCC[C@H]2C(=O)n1nc2c(c1N)CCOC2 (single isomer, unassigned) [Example 199, (R*)-(3-amino-4,5-dihydropyrano[3,4-c]pyrazol-2(7H)-yl)(8-methyl-1,2,3,4-tetrahydro-quinolin-4-yl)methanone] |
